Experimental data from patent publication US12697331B2, “Methods of use of T-type calcium channel modulators” (PRAXIS PRECISION MEDICINES, INC., priority 2020, dated 2026).
Structures can show the parent of a compound that is named as a salt.

Key:
[1] = Within-participant escalating dose trial Part B: safety and tolerability (TEAEs); type: in vivo, human; settings: titration 20 to 120 mg per day; no maximum tolerated dosage identified; hydrochloride
hCav3.1 = biological target: T1, hCav3.1 (Homo sapiens, UniProt O43497); experiment: PatchXpress patch clamp, voltage dependent block (half-inactivated state, V0.5); type: cell-based; settings: for Inhibition of hCav3.1 peak current, voltage dependent block (percent inhibition), mean: half-inactivated state (V0.5)
T1 construct: expressed in transfected cells; host or cells: HEK-293 (cultured under G418 selection)
Protocol: (§1) The voltage dependence of calcium channel isoforms was determined by comparing the activity of resting (Tonic Block) and half-inactivated (Voltage Dependent Block) voltages across various concentrations of Formula (II). First, HEK-293 cells containing hCav3.1, hCav3.2, or hCav3.3 calcium channel isoforms were prepared by seeding at 2×10^6 cells per flask in culture for 2 days; the cells were then harvested at about 6×10^6 cells. Harvested cells were washed once in DPBS for approximately 30 minutes, and 1 mL of 1× (0.05%) Trypsin-EDTA was added, swirled, and allowed to sit on the cells for approximately 4 minutes. 10 mL of warmed DMEM high glucose media supplemented with 10% fetal bovine serum, 2 mM sodium pyruvate, 10 mM HEPES, and 400 μg/mL G418 was added, and the cells were triturated until a single cell suspension was […]. Cells were placed in a 250 mL centrifuge tube with 30 mL warmed media and gently rocked at 28° C. for approximately 1 hour. Cell aliquots of 5 mLs (1×10^6 cells) were then centrifuged at 100× for 2 minutes, and supernatant was removed. Next, 100 μl of external recording solution was added to the remaining cell pellet and triturated 20 times to achieve a single cell suspension.
(§2) Immediately prior to assay, Formula (II) was diluted with DMSO to 300× the designated final concentration. All studies were performed using the Molecular Devices PatchXpress automated patch clamp platform at room temperature.
(§3) Pharmacology was measured during Epoch 1. Percent inhibition was calculated as: 100*((([Step 2+Step 5]/2)−Step 3)/(Step 2+Step 5/2)), wherein Step 2 is the peak current measured at baseline, Step 5 is the current measured during the wash period, and Step 3 is the peak current measured during application of the compound. The average of the final 3 consecutive currents in each experimental procedure was used for all calculations. The concentration response curve was fit with a Hill equation to derive IC50, slope, minimum response, and maximum response fitting parameters.
(§4) To calculate the hCav3.1, hCav3.2, and hCav3.3 peak current from a half-inactivated state (voltage dependent block), currents were first evoked by depolarizing pulses to −25 mV (10 ms) from a non-inactivating holding potential (−120 mV) at a frequency of 0.1 Hz. After current amplitude became stable, the mid-point average of steady state inactivation was determined for each cell using a series of 9,900 ms conditioning steps to increasingly depolarize voltages (ranging from Vhold (−120 mV) to −40 mV) preceding a test pulse to −25 mV (10 ms) to establish the magnitude of inactivation. The holding command potential was then set to the voltage that produced approximately 50% inactivation (V0.5) using PatchXpress scripts. From this V0.5 potential, a voltage step to −25 mV (10 ms) was used to evoque peak current. The voltage was stepped to −120 mv (50 ms) to evoque tail currents and monitor cell integrity.
(§5) The effect of the compound on peak current amplitude was monitored using the voltage protocol described above and washed out after reaching steady state as determined by PatchXpress stability scripts. Washout was performed at the original holding potential of −120 mV to facilitate reversal of state-dependent interactions. Washout current for the calculation of inhibition was determined by resetting the holding potential to the previously determined half-inactivation potential (V0.5) and measuring peak current from this holding potential. Pharmacology was measured during Epoch 1, and percent inhibition was calculated as discussed above for tonic block.

hCav3.2 = biological target: T2, hCav3.2 (Homo sapiens, UniProt O95180); experiment: as above; type: cell-based; settings: for Inhibition of hCav3.2 peak current, voltage dependent block (percent inhibition), mean: half-inactivated state (V0.5)
T2 construct: expressed in transfected cells; host or cells: HEK-293 (cultured under G418 selection)
Protocol: as §1, §2, §3, §4, §5

hCav3.3 = biological target: T3, hCav3.3 (Homo sapiens, UniProt Q9P0X4); experiment: as above; type: cell-based; settings: for Inhibition of hCav 3.3 peak current, voltage dependent block (percent inhibition), mean: half-inactivated state (V0.5)
T3 construct: expressed in transfected cells; host or cells: HEK-293 (cultured under G418 selection)
Protocol: as §1, §2, §3, §4, §5

T2 sequence (O95180 whole entry): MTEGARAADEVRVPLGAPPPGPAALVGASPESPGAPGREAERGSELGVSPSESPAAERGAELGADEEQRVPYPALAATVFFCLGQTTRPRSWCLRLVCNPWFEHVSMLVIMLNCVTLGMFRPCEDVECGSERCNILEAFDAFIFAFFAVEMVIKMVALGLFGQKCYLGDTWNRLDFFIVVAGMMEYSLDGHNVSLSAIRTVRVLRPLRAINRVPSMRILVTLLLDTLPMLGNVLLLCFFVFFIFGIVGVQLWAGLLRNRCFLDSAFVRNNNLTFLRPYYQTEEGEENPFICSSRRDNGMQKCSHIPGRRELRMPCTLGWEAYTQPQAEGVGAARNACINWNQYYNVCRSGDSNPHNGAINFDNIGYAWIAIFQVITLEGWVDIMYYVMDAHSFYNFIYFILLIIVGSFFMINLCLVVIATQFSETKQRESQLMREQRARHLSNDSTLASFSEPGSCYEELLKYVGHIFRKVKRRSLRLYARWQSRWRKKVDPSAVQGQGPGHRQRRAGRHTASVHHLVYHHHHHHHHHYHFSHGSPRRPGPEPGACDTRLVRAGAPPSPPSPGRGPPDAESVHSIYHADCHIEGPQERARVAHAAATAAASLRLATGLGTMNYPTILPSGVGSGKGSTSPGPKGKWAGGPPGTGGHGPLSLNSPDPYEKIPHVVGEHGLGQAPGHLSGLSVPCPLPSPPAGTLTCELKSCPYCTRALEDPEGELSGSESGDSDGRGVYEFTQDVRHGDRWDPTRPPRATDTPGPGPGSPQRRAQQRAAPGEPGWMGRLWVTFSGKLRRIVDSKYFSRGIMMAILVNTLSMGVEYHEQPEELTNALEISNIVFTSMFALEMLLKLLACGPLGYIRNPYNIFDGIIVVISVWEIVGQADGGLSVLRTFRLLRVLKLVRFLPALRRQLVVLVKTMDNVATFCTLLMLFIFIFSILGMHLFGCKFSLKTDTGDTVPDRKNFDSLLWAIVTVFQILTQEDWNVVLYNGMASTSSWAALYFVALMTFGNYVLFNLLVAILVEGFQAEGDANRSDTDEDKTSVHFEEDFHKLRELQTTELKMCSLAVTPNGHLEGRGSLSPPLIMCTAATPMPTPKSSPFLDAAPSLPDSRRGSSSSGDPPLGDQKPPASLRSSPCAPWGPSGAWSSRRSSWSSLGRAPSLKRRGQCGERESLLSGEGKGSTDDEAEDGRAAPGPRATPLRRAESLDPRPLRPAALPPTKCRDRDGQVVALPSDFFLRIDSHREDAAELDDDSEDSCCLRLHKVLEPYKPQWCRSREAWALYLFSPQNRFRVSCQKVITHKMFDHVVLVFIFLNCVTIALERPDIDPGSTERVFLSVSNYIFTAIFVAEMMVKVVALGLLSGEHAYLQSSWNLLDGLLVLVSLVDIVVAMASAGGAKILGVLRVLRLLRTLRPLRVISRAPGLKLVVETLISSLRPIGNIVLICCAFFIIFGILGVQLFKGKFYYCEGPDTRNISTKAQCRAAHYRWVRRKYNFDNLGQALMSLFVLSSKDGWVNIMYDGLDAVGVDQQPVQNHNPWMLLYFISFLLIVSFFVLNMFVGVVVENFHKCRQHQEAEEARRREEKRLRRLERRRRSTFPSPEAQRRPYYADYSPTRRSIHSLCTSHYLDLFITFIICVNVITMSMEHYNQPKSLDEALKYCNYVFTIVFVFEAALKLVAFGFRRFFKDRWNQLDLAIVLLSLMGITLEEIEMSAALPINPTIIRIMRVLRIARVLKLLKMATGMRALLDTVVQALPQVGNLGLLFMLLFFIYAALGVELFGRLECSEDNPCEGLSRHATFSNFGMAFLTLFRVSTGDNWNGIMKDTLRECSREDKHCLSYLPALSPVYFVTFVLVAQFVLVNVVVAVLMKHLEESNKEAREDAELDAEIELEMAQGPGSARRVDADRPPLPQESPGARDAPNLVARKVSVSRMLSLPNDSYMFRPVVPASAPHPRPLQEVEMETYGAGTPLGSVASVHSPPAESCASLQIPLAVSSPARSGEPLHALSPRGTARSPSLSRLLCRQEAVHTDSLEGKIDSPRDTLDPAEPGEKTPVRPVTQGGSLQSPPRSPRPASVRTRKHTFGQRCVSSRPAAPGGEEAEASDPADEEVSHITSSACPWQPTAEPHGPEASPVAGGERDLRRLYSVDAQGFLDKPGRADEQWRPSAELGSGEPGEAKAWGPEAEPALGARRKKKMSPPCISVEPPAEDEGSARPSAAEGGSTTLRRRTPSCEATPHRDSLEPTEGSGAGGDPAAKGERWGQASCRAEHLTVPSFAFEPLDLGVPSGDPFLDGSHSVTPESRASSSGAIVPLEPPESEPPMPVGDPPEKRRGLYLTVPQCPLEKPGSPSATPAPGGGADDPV
T1 sequence (O43497 whole entry): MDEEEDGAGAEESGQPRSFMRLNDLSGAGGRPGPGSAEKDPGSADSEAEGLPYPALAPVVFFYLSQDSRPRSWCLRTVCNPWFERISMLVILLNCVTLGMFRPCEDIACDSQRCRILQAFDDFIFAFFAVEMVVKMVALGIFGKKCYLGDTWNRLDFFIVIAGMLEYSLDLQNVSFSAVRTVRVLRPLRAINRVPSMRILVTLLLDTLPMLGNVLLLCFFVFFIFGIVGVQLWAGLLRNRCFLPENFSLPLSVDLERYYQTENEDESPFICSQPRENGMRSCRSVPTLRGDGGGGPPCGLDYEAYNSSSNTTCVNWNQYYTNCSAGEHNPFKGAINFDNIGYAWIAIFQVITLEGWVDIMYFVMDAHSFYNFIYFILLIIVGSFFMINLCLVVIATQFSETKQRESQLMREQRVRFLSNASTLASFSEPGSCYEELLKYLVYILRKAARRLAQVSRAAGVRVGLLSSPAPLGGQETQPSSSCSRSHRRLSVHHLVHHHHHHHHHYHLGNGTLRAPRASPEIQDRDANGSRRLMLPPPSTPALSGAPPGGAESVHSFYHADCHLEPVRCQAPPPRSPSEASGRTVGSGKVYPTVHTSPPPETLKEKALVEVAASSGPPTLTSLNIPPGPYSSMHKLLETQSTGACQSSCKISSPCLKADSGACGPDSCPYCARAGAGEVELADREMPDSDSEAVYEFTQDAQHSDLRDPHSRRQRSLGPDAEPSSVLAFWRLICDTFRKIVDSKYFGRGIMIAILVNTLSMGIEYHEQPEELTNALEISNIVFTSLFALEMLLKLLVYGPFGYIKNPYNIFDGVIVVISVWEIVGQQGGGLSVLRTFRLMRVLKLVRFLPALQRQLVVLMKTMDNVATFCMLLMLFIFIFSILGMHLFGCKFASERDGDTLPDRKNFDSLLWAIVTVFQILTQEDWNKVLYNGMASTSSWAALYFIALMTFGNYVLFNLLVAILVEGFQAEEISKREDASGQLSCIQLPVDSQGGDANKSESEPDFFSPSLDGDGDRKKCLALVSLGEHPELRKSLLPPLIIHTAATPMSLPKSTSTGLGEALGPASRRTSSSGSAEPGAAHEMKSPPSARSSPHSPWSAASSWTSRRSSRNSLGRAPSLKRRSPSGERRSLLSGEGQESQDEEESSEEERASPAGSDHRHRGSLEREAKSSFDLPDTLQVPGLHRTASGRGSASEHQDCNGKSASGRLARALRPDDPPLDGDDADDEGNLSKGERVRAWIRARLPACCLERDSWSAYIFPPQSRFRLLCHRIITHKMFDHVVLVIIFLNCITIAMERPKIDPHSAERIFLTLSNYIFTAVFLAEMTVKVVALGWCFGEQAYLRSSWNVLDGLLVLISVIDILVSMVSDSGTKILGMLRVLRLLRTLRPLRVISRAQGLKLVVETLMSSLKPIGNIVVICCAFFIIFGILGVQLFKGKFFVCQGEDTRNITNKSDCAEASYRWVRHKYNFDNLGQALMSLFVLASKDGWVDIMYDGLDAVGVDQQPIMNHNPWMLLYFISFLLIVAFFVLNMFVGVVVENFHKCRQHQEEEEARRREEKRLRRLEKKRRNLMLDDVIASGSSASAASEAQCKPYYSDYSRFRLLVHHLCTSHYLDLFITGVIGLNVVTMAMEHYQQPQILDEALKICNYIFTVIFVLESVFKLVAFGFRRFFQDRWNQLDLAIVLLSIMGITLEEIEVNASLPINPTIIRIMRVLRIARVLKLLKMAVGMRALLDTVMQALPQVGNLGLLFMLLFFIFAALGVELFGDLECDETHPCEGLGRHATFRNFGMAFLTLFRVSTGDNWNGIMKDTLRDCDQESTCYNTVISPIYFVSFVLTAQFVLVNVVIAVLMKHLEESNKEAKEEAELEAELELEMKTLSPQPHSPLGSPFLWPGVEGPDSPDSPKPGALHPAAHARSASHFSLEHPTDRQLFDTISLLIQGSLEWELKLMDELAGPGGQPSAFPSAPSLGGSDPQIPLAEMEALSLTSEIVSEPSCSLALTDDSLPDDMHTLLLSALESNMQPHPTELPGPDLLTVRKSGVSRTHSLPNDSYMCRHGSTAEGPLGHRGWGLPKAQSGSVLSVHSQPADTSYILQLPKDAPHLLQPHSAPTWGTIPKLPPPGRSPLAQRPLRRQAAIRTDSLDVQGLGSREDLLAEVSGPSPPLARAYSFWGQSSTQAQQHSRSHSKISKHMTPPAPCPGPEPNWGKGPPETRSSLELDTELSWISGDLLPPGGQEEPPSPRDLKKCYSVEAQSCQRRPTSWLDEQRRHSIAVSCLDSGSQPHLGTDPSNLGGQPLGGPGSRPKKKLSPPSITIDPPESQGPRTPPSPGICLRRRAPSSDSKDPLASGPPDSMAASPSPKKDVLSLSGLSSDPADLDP

## CC(C)(C)NC(=O)CN1CCC(CNC(=O)c2cc(F)cc(Cl)c2)CC1 [compound of formula (II), N-((1-(2-(tert-butylamino)-2-oxoethyl)piperidin-4-yl)methyl)-3-chloro-5-fluorobenzamide hydrochloride]
[1]
  Dose levels well-tolerated with a titrated dosing schedule: up to 120 mg per day
hCav3.1; 0.03 μm
  Inhibition of hCav3.1 peak current, voltage dependent block (percent inhibition), mean: 13.9 (12)
hCav3.1; 0.09 μm
  Inhibition of hCav3.1 peak current, voltage dependent block (percent inhibition), mean: 29.7 (14)
hCav3.1; 0.27 μm
  Inhibition of hCav3.1 peak current, voltage dependent block (percent inhibition), mean: 55.2 15)
hCav3.1; 0.91 μm
  Inhibition of hCav3.1 peak current, voltage dependent block (percent inhibition), mean: 73.8 (9)
hCav3.1; 2.74 μm
  Inhibition of hCav3.1 peak current, voltage dependent block (percent inhibition), mean: 84.6 (9)
hCav3.1; 9.13 μm
  Inhibition of hCav3.1 peak current, voltage dependent block (percent inhibition), mean: 86.0 (7)
hCav3.1; hCav3.1
  tonic block/voltage dependent block (TB/VDB) ratio: 3.8
hCav3.2; 0.03 μm
  Inhibition of hCav3.2 peak current, voltage dependent block (percent inhibition), mean: 16.6 (11)
hCav3.2; 0.09 μm
  Inhibition of hCav3.2 peak current, voltage dependent block (percent inhibition), mean: 31.2 (7)
hCav3.2; 0.27 μm
  Inhibition of hCav3.2 peak current, voltage dependent block (percent inhibition), mean: 48.4 (9)
hCav3.2; 0.91 μm
  Inhibition of hCav3.2 peak current, voltage dependent block (percent inhibition), mean: 78.8 (12)
hCav3.2; 2.74 μm
  Inhibition of hCav3.2 peak current, voltage dependent block (percent inhibition), mean: 91.6 (13)
hCav3.2; hCav3.2
  tonic block/voltage dependent block (TB/VDB) ratio: 2.0
hCav3.3; 0.03 μm
  Inhibition of hCav 3.3 peak current, voltage dependent block (percent inhibition), mean: 12.9 (8)
hCav3.3; 0.09 μm
  Inhibition of hCav 3.3 peak current, voltage dependent block (percent inhibition), mean: 26.9 (17)
hCav3.3; 0.27 μm
  Inhibition of hCav 3.3 peak current, voltage dependent block (percent inhibition), mean: 58.7 (19)
hCav3.3; 0.91 μm
  Inhibition of hCav 3.3 peak current, voltage dependent block (percent inhibition), mean: 76.9 (20)
hCav3.3; 2.74 μm
  Inhibition of hCav 3.3 peak current, voltage dependent block (percent inhibition), mean: 89.4 (20)
hCav3.3; 9.13 μm
  Inhibition of hCav 3.3 peak current, voltage dependent block (percent inhibition), mean: 92.9 (4)
hCav3.3; hCav3.3
  tonic block/voltage dependent block (TB/VDB) ratio: 4.0
